Measurements published in paper PMC5053890 (Bioorganic & medicinal chemistry, 2016).

Biological target: T1, GVIA iPLA2 (Homo sapiens, UniProt O60733)
T1 sequence (O60733 1-806): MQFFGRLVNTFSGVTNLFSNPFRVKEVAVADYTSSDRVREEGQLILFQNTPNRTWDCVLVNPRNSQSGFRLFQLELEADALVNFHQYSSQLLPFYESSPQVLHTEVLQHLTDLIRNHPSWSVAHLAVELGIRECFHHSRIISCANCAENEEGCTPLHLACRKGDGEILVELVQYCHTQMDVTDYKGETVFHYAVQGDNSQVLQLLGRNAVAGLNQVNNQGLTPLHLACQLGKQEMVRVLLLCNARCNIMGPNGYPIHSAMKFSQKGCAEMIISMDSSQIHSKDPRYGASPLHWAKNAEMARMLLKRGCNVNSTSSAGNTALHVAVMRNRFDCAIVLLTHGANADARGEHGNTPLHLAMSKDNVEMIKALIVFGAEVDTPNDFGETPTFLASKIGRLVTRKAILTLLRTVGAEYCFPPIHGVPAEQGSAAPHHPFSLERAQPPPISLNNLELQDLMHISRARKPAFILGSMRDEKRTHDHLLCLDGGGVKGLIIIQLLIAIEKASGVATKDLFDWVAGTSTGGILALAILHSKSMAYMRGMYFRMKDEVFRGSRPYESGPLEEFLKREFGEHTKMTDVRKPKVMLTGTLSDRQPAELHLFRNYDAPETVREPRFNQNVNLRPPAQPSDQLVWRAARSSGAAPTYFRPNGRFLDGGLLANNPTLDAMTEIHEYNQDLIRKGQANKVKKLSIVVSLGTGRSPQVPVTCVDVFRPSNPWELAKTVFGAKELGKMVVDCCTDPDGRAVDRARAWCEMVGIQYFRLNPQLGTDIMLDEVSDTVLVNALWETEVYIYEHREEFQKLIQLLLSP
Assay: mixed micelle modified Dole assay, GVIA iPLA2
Assay type: biochemical
Settings: read-out: IC50 (converted from XI(50)); 0.091 mole fraction corresponds to 50 μM

CCCCCCCCSCC(=O)C(F)(F)F [Compound 3]
IC50: 110 nM
